Experimental data from patent publication US12466818B2, “Thienyl-aniline compounds for treatment of dermal disorders” (NFlection Therapeutics, Inc., priority 2018, dated 2025).

Columns and labels:
[1] = system: pERK in human cutaneous neurofibroma explants; experiment: Human cutaneous neurofibroma explant pERK suppression (Western blot); format: cell-based
Protocol: Explant Protocol: Human cutaneous neurofibroma explant samples were collected in DMEM/F-12 (Thermo Fisher, Cat #11320033) supplemented with 1×B27 supplement (Thermo Fisher, Cat #17504044), 2.5 μg/ml of Amphotericin B (Thermo Fisher, Cat #15290018), and 50 units/ml of Penicillin-50 μg/ml of Streptomycin (Thermo Fisher, Cat #15070063) and incubated in the same medium for subsequent treatment. The specimen was cut into small cubes containing both the epidermis and dermis. The tissues were partially submerged in the medium in 384-well plate with the epidermis exposed to the air.
The tissues were fully submerged in the medium in 48-well plate and 5 μl of compounds dissolved in DMSO were added to 200 μl of the medium in each well. After 4 h incubation at 37° C. and 5% CO2, the tissues were harvested and half of the specimen was flash frozen in liquid nitrogen for Western Blot analysis. The other half of the specimen was fixed for 24 hours in 10% formalin and then transferred to 70% ethanol for […].
Skin samples were thawed on ice and weighed. 10 volume (10 μl for each mg of tissue) of lysis buffer (RIPA buffer+0.5 mM EDTA+1×Halt protease and phosphatase inhibitor cocktail) was then added to each sample. […]
Western Blot analysis: The lysate was thawed on ice and protein concentration was determined by the BCA protein assay kit using bovine serum albumin (BSA) as standards. […]

MEK1 = MEK1 (Homo sapiens (Human), UniProt Q02750); experiment: MEK Inhibition Assay-2 (Z'-LYTE biochemical assay); settings: Z'-LYTE assay of Example 37; read-out: IC50 against MEK1
Protocol: MEK1 inhibitory activity of compounds were tested using the following procedure (protocol available at thermofisher.com/content/dam/LifeTech/migration/files/drug-discovery/pdfs.par.60256.file.dat/20130430%20ssbk %20customer %20protocol %20 and %20assa y %20conditions.pdf). The Z′-LYTE biochemical assay (ThermoFisher) employs a fluorescence-based, coupled-enzyme format and is based on the differential sensitivity of phosphorylated and non-phosphorylated peptides to proteolytic cleavage.
Test compounds in 100% DMSO were screened in 1% DMSO (final) in the well. For 10 point titrations, 3-fold serial dilutions are conducted from the starting concentration of 30 μM.
After the 1 hour incubation, 5 μL of a 1:1024 dilution of Development Reagent A (available from Invitrogen, catalog no. PV3295) was added.
ATP solutions were diluted to a 4× working concentration in Kinase Buffer (50 mM HEPES pH 7.5, 0.01% BRIJ-35, 10 mM MgCl2, 1 mM EGTA). ATP Km apparent was previously determined using a Z′-LYTE assay. The Development Reagent was diluted in Development Buffer (available from Invitrogen, catalog no. P3127).
Assay Protocol: 2.5 μL of 4× test compound or 100 nL of 100× Test Compound plus 2.4 μL Kinase Buffer, 5 μL of the 2× Peptide/Kinase Mixture, 2.5 μL of 4×ATP Solution were added to the plates and placed on a shake plate for 30-seconds. The kinase reaction was allowed to proceed for 60-minute at room temperature, before 5 μL of Development Reagent Solution was added, and the mixture agitated for 30-seconds on a shake plate. The mixture was incubated for 60-minute at room temperature. Fluorescence was measured using a plate reader and the data were analyzed.
This control yielded 100% cleaved peptide in the Development Reaction. The 100% Phosphorylation Control, which consisted of a synthetically phosphorylated peptide of the same sequence as the peptide substrate, was designed to allow for the calculation of percent phosphorylation. This control yielded a very low percentage of cleaved peptide in the Development Reaction. The 0% Phosphorylation and 100% Phosphorylation Controls allow for the calculation of the percent phosphorylation achieved in a specific reaction well.
The minimum emission ratio in a screen was established by the 0% Inhibition Control, which contained active kinase. This control was designed to produce a 10-50% phosphorylated peptide in the Kinase Reaction. Cascade assays may produce up to 70% phosphorylated peptide.
A known inhibitor control standard curve, 10 point titration, was run for each individual kinase on the same plate as the kinase to ensure the kinase was inhibited within an expected IC50 range previously determined.
The following controls are prepared for each concentration of Test Compound assayed. […] The expected value for a non-interfering compound should be 100%. Any value outside of 90% to 110% was flagged. […] The expected value for a non-fluorescence compound should be 0%. Any value>20% was flagged.
The data in Table A was calculated. XLfit from IDBS was used. The dose response curve was curve fit to model number 205 (sigmoidal dose-response model).
Table 3 lists the MEK1 inhibition assay results of selected compounds according to the above procedure.

MEK1, sequence (Q02750 whole entry): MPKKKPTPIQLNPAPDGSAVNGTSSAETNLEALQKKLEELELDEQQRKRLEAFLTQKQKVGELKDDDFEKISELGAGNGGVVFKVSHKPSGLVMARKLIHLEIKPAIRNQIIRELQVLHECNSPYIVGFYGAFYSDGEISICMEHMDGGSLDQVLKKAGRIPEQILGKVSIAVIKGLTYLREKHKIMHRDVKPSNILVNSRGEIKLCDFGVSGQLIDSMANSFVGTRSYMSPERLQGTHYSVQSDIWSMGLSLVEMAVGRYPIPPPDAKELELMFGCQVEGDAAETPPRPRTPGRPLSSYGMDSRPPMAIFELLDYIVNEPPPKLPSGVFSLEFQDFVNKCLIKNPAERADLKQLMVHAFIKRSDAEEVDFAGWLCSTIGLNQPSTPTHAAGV

SMILES: O=C1CCCc2c1sc(Nc1ccc(I)cc1F)c2C(=O)NOCCO [Compound 1.029, 2-((2-Fluoro-4-iodophenyl)amino)-N-(2-hydroxyethoxy)-7-oxo-4,5,6,7-tetrahydrobenzo[b]thiophene-3-carboxamide]
- suppression of pERK in human cutaneous neurofibroma (cNF) explants (FIG. 5) ([1]; concentration of 500 nM): suppression of pERK
- suppression of pERK in human cutaneous neurofibroma (cNF) explants (FIG. 4) ([1]; treatment for 4 hours at 5 nM, 50 nM, and 500 nM): suppression of pERK
- IC50 (MEK1): ≤ 0.15 µM
